EC50 data for 50 compounds are collected here from patent US8309552B2, “Immunomodulating heterocyclic compounds” (Medigene AG, priority 2003, dated 2012).

The target in the first experiment is T1, CD80-CD28 interaction (Homo sapiens, UniProt P33681).
T1 sequence (P33681 35-242 limits assumed): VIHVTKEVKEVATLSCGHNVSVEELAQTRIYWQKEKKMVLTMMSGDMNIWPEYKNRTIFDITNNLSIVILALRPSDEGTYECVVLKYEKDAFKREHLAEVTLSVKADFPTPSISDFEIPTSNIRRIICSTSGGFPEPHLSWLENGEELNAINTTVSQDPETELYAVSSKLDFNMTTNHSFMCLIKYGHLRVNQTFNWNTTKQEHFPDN
Kind of experiment: Homogenous Time Resolved Fluorescence (HTRF) assay, cell free. The format is binding. The note with it: cell-free HTRF, compound concentration series 100 μM-1.7 nM, 4 hours at room temperature; read-out: Activity (EC50 in the HTRF assay). As to the method: Homogenous Time Resolved Fluorescence Assay
The examples described above were tested in a cell free Homogenous Time Resolved Fluorescence (HTRF) assay to determine their activity as inhibitors of the CD80-CD28 interaction.
In the assay, europium and allophycocyanin (APC) are associated with CD28 and CD80 indirectly (through antibody linkers) to form a complex, which brings the europium and APC into close proximity to generate a signal. The complex comprises the following six proteins: fluorescent label 1, linker antibody 1, CD28 fusion protein, CD80 fusion protein, linker antibody 2, and fluorescent label 2. The table below describes these reagents in greater detail.
On formation of the complex, europium and APC are brought into proximity and a signal is generated.
Non-specific interaction was measured by substituting a mouse Fab fragment (C215) for the CD80 mouse Fab fragment fusion protein (1.9 μg/ml). The assay was carried out in black 384 well plates in a final volume of 30 μl. Assay buffer: 50 mM Tris-HCl, 150 mM NaCl pH7.8, containing 0.1% BSA (w/v) added just prior to use.
Compounds were added to the above reagents in a concentration series ranging between 100 μM-1.7 nM. The reaction was incubated for 4 hours at room temperature. Dual measurements were made using a Wallac Victor 1420 Multilabel Counter. First measurement: excitation 340 nm, emission 665 nm, delay 50 μs, window time 200 μs. second measurement: excitation 340 nm, emission 615 nm, delay 50 μs, window time 200 μs. Counts were automatically corrected for fluorescence crossover, quenching and background. The EC50 activities of compounds tested are recorded as: EC50:*=>10 μM,**=1-10 μM,***=<1 μM.
In general terms: Time-resolved FRET reads energy transfer from a long-lived donor to a nearby acceptor.
By EC50 is commonly meant the concentration at which the effect is half-maximal. With `COCCNC(=O)c1ccc(-n2[nH]c3c(nnc4ccccc43)c2=O)cc1` [Example 9a], the EC50 was 1000 to 10000 nM.
Turning to `CN1CCN(CCCNC(=O)c2ccc(-n3[nH]c4c(nnc5ccccc54)c3=O)cc2)CC1` [Example 10], the EC50 was under 1000 nM.
With `CN(C)CCNC(=O)c1ccc(-n2[nH]c3c(nnc4ccccc43)c2=O)cc1` [Example 11], the EC50 is under 1000 nM.
For `O=C(NCCN1CCOCC1)c1ccc(-n2[nH]c3c(nnc4ccccc43)c2=O)cc1` [Example 12], the EC50 is under 1000 nM.
`O=C(NCCCN1CCOCC1)c1ccc(-n2[nH]c3c(nnc4ccccc43)c2=O)cc1` [Example 13]: the EC50 is under 1000 nM.
On the same count and under the same terms, the same measure for `CC(C)=CCC/C(C)=C/CNC(=O)c1ccc(-n2[nH]c3c(nnc4ccccc43)c2=O)cc1` [Example 14]: over 10000 nM.
Turning to `O=C(Nc1ccccc1)c1ccc(-n2[nH]c3c(nnc4ccccc43)c2=O)cc1` [Example 15], the EC50 lay in the range of 1000 to 10000 nM.
Turning to `Cc1ccc2[nH]cc(CCNC(=O)c3ccc(-n4[nH]c5c(nnc6ccccc65)c4=O)cc3)c2c1` [Example 16], the EC50 is over 10000 nM.
Same read-out and setting: to `CC(C)(C)OC(=O)NCCNC(=O)c1ccc(-n2[nH]c3c(nnc4ccccc43)c2=O)cc1` [Example 17] belongs 1000 to 10000 nM; to `CN1CCC(NC(=O)c2ccc(-n3[nH]c4c(nnc5ccccc54)c3=O)cc2)CC1` [Example 18], under 1000 nM; to `CC(NC(=O)c1ccc(-n2[nH]c3c(nnc4ccccc43)c2=O)cc1)c1ccccc1` (centres unmarked) [Example 19], over 10000 nM.
Turning to `O=C(NCCc1ccncc1)c1ccc(-n2[nH]c3c(nnc4ccccc43)c2=O)cc1` [Example 20], the EC50 is under 1000 nM.
On the same count and under the same terms, to `O=C(NCc1ccc([N+](=O)[O-])cc1)c1ccc(-n2[nH]c3c(nnc4ccccc43)c2=O)cc1` [Example 21] belongs 1000 to 10000 nM.
Consider `O=C(NCCCn1ccnc1)c1ccc(-n2[nH]c3c(nnc4ccccc43)c2=O)cc1` [Example 23], for which the EC50 is under 1000 nM.
On the same count and under the same terms, to `O=C(NC1CCCCCC1)c1ccc(-n2[nH]c3c(nnc4ccccc43)c2=O)cc1` [Example 24] belongs 1000 to 10000 nM; to `CCCCC(CC)CNC(=O)c1ccc(-n2[nH]c3c(nnc4ccccc43)c2=O)cc1` (centres unmarked) [Example 25], over 10000 nM.
With `CC(C)CCCC(C)NC(=O)c1ccc(-n2[nH]c3c(nnc4ccccc43)c2=O)cc1` (centres unmarked) [Example 26], the EC50 was under 1000 nM.
Still for that read-out and setting: to `CCCCCCC(C)NC(=O)c1ccc(-n2[nH]c3c(nnc4ccccc43)c2=O)cc1` (centres unmarked) [Example 27] belongs over 10000 nM; to `C=C(C)C(=O)OCCNC(=O)c1ccc(-n2[nH]c3c(nnc4ccccc43)c2=O)cc1` [Example 28], 1000 to 10000 nM; to `CC(O)CCNC(=O)c1ccc(-n2[nH]c3c(nnc4ccccc43)c2=O)cc1` (centres unmarked) [Example 29], under 1000 nM.
As to `COc1ccc2[nH]cc(CCNC(=O)c3ccc(-n4[nH]c5c(nnc6ccccc65)c4=O)cc3)c2c1` [Example 31], the EC50 is 1000 to 10000 nM.
Take `CC1CCCCN1CCCNC(=O)c1ccc(-n2[nH]c3c(nnc4ccccc43)c2=O)cc1` (centres unmarked) [Example 32]: the EC50 is under 1000 nM.
As for `CC(C)C(C)NC(=O)c1ccc(-n2[nH]c3c(nnc4ccccc43)c2=O)cc1` (centres unmarked) [Example 33], the EC50 fell in the range of 1000 to 10000 nM.
In the case of `CCOC(=O)CC(C)NC(=O)c1ccc(-n2[nH]c3c(nnc4ccccc43)c2=O)cc1` (centres unmarked) [Example 34], the EC50 fell in the range of 1000 to 10000 nM.
As for `O=C(NCCc1cnc[nH]1)c1ccc(-n2[nH]c3c(nnc4ccccc43)c2=O)cc1` [Example 35], the EC50 is 1000 to 10000 nM.
`O=C(NCCN1CCNC1=O)c1ccc(-n2[nH]c3c(nnc4ccccc43)c2=O)cc1` [Example 36]: the EC50 was over 10000 nM.
For `O=C(NCCN1CCN(Cc2ccccc2)CC1)c1ccc(-n2[nH]c3c(nnc4ccccc43)c2=O)cc1` [Example 37], the EC50 is under 1000 nM.
As for `CC(C)(C)C1CCC(NC(=O)c2ccc(-n3[nH]c4c(nnc5ccccc54)c3=O)cc2)CC1` (centres unmarked) [Example 38], the EC50 is over 10000 nM.
Regarding `O=C(NCc1cccc([N+](=O)[O-])c1)c1ccc(-n2[nH]c3c(nnc4ccccc43)c2=O)cc1` [Example 39], the EC50 lay within 1000 to 10000 nM.
Take `O=C(Nc1ccc(N2CCOCC2)cc1)c1ccc(-n2[nH]c3c(nnc4ccccc43)c2=O)cc1` [Example 40]: the EC50 was in the range of 1000 to 10000 nM.
Take `O=C(NCCCc1ccccc1)c1ccc(-n2[nH]c3c(nnc4ccccc43)c2=O)cc1` [Example 41]: the EC50 lay in the range of 1000 to 10000 nM.
Regarding `O=C(NCCCNC(=O)c1ccc(-n2[nH]c3c(nnc4ccccc43)c2=O)cc1)OCc1ccccc1` [Example 42], the EC50 lay within 1000 to 10000 nM.
`CCCCCC(C)NC(=O)c1ccc(-n2[nH]c3c(nnc4ccccc43)c2=O)cc1` (centres unmarked) [Example 43]: the EC50 is 1000 to 10000 nM.
Turning to `O=C(NC1CCCC1OCc1ccccc1)c1ccc(-n2[nH]c3c(nnc4ccccc43)c2=O)cc1` (centres unmarked) [Example 44], the EC50 was over 10000 nM.
Still for that read-out and setting: to `CCOC(CNC(=O)c1ccc(-n2[nH]c3c(nnc4ccccc43)c2=O)cc1)OCC` [Example 45] belongs 1000 to 10000 nM.
As to `CCNC(=O)c1ccc(-n2[nH]c3c(nnc4ccccc43)c2=O)cc1` [Example 46], the EC50 was under 1000 nM.
Regarding `O=C(NCCNc1ccccc1)c1ccc(-n2[nH]c3c(nnc4ccccc43)c2=O)cc1` [Example 47], the EC50 is under 1000 nM.
Regarding `CNCCNC(=O)c1ccc(-n2[nH]c3c(nnc4ccccc43)c2=O)cc1` [Example 48], the EC50 was under 1000 nM.
As to `CCNCCNC(=O)c1ccc(-n2[nH]c3c(nnc4ccccc43)c2=O)cc1` [Example 49], the EC50 was under 1000 nM.
Consider `O=C(NCCOCCO)c1ccc(-n2[nH]c3c(nnc4ccccc43)c2=O)cc1` [Example 50], for which the EC50 is 1000 to 10000 nM.
As for `O=C(NCCO)c1ccc(-n2[nH]c3c(nnc4ccccc43)c2=O)cc1` [Example 51], the EC50 is under 1000 nM.
For `CNCCCNC(=O)c1ccc(-n2[nH]c3c(nnc4ccccc43)c2=O)cc1` [Example 52], the EC50 was under 1000 nM.
Still for that read-out and setting: to `NCCCCNC(=O)c1ccc(-n2[nH]c3c(nnc4ccccc43)c2=O)cc1` [Example 54] belongs under 1000 nM.
Consider `CC(C)CC(C)NC(=O)c1ccc(-n2[nH]c3c(nnc4ccccc43)c2=O)cc1` (centres unmarked) [Example 55], for which the EC50 was under 1000 nM.
With `O=C(NCc1ccc(F)cc1)c1ccc(-n2[nH]c3c(nnc4ccccc43)c2=O)cc1` [Example 56], the EC50 was 1000 to 10000 nM.
Still for that read-out and setting: the same measure for `O=C(NC1CCCCC1)c1ccc(-n2[nH]c3c(nnc4ccccc43)c2=O)cc1` [Example 57]: 1000 to 10000 nM.

The same experiment, now with this note: inhibition of the CD80-CD28 interaction, 4 hours at room temperature; read-out: EC50 activity in the HTRF assay.
Take `O=C(O)c1ccc(-n2[nH]c3c(nnc4ccccc43)c2=O)cc1` [Example 1, 4-(3-oxo-1,3-dihydro-2H-pyrazolo[4,3-c]cinnolin-2-yl)benzoic acid]: the EC50 was over 10000 nM.
Take `O=C(O)c1ccc(-n2[nH]c3c(nnc4c(F)cccc43)c2=O)cc1` [Example 5, 4-(6-fluoro-3-oxo-1,3-dihydro-2H-pyrazolo[4,3-c]cinnolin-2-yl)benzoic acid]: the EC50 is over 10000 nM.
For `CN(C)CCCNC(=O)Nc1ccc(-n2[nH]c3c(nnc4ccccc43)c2=O)cc1` [Example 8, N-[3-(dimethylamino)propyl]-N′-[4-(3-oxo-1,3-dihydro-2H-pyrazolo[4,3-c]cinnolin-2-yl)phenyl]urea], the EC50 was under 1000 nM.
`CCOC(=O)c1ccc(-n2[nH]c3c(nnc4ccccc43)c2=O)cc1` [Example 9, 4-(3-oxo-1,3-dihydro-2H-pyrazolo[4,3-c]cinnolin-2-yl)benzoic acid ethyl ester]: the EC50 is 1000 to 10000 nM.
